Laboratory results reported in patent US7763626B2, “Compositions and method for enhancing the therapeutic activity of opiods in treatment of pain” (Trustees of Dartmouth College, priority 2004, dated 2010).

Key:
Type in all cases: in vivo, rat
GFAP mRNA = test: Real-time PCR of GFAP mRNA at L5 lumbar spinal cord
Experimental: Total RNA was treated with DNase I (Ambion, Austin, Tex.) to remove DNA contamination before cDNA synthesis. The reverse transcription (RT) was carried out in a 100 μl total reaction volume containing RT buffer, dNTPs, multiscribe reverse transcriptase, RNase-free water and 10 μg of DNase-treated total RNA. The RT reaction was carried out at 25° C. for 10 minutes, 37° C. for 120 minutes, and 95° C. for 5 minutes. Real-time PCR analysis was performed using gene-specific primers and probes that were designed and blasted against GENBANK to confirm their species and gene specificity. […] The real-time PCR reactions were carried out using Platinum Taq DNA polymerase, 20 mM Tris HCl (pH 8.4), 50 mM KCl, 3 mM MgCl2, 200 μM dGTP, dCTP, and dATP, 400 μM of dUTP and 1 U uracyl DNA glycosylase (UDG), 900 nM forward and reverse primers, 300 nM TaqMan probe, and 10-fold dilution of cDNA (50 ng) from the RT step. Primers and probes for glyceraldehyde-3-phosphate (GADPH), GFAP and Mac-1 were obtained form Applied Biosystems (LaJolla, Calif.). The relative standard curves generated by plotting the threshold value versus the log of the amount of total cDNA added to the reaction (1-10000 pg) were used to compare the relative amount of target genes from control and chronic morphine-treated animals.

GLAST = test: Immunohistochemical assessment of glutamate transporters in spinal cord; settings: day 12 after L5 spinal nerve transection; propentofylline 10 μg i.t. daily
Experimental: (§1) Experiments were performed to determine how propentofylline-induced suppression of glial activation contribute to reduced behavioral hypersensitivity after nerve injury. In a preventative paradigm, 10 μg of propentofylline (Sigma) to male Sprague-Dawley rats in 40 μl of sterile saline, or saline vehicle alone was administered intrathecally (i.t.) by lumbar puncture at the L4/5 level under brief halothane anesthesia (n=6-8/group). Treatment began one hour prior to L5 spinal nerve transection and continued daily in the evening until day 4 or 12 post-transection. Rats received either an L5 spinal nerve transection or sham surgery on day 0. The development of mechanical allodynia was monitored as described above in the morning at approximately 15 hours post-propentofylline or saline injection. […]
(§2) For assessment of GFAP, GLT-1 and GLAST immunoreactivity, a separate group of animals (n=4/treatment) were anesthetized and transcardially perfused with 0.1 M PBS (phosphate-buffered saline), pH 7.4, followed by 4% paraformaldehyde in PBS on day 12 post-L5 spinal nerve transection. […] The sections were examined with an Olympus fluorescence microscope, and images were captured with a Q-Fire cooled camera. […]

GLT-1 = test: as above; settings: twelve days after L5 spinal nerve transection; propentofylline 10 μg i.t. daily
Experimental: as §1, §2

GLAST protein = test: Western blot analysis of ipsilateral lumbar spinal cord; settings: day 4
Experimental: (§3) Experiments were performed to determine how propentofylline-induced suppression of glial activation contribute to reduced behavioral hypersensitivity after nerve injury. In a preventative paradigm, 10 μg of propentofylline (Sigma) to male Sprague-Dawley rats in 40 μl of sterile saline, or saline vehicle alone was administered intrathecally (i.t.) by lumbar puncture at the L4/5 level under brief halothane anesthesia (n=6-8/group). Treatment began one hour prior to L5 spinal nerve transection and continued daily in the evening until day 4 or 12 post-transection. Rats received either an L5 spinal nerve transection or sham surgery on day 0. The development of mechanical allodynia was monitored as described above in the morning at approximately 15 hours post-propentofylline or saline injection. Rats were euthanized on day 4 or 12 post-transection and tissue was further processed by real time RT-PCR, Western blot, or immunohistochemistry for determination of levels and rate of synthesis of the glutamate transporters GLT-1 and GLAST.
(§4) Tissue was collected from 4-5 rats/group on postoperative days 4 or 12. […]
(§5) Protein obtained from L5 lumbar spinal cord was quantified using the Lowry method (DC assay, Bio-Rad, Richmond, Calif.). […]

GLT-1 protein = test: as above; settings: day 12
Experimental: as §3, §4, §5

CCCn1cnc2c1c(=O)n(CCCCC(C)=O)c(=O)n2C [propentofylline]
GFAP mRNA levels at the L5 lumbar spinal cord (GFAP mRNA; compared to saline-treated controls, morphine 10 mg/kg twice daily 5 days, or propentofylline 10 micrograms intrathecally 5 days in saline-treated rats): no effect | chronic morphine-induced upregulation of GFAP (GFAP mRNA; propentofylline during the induction phase of morphine tolerance): significantly attenuated | GLAST immunoreactivity on the ipsilateral side (GLAST): did not enhance | GLT-1 immunoreactivity, ipsilateral versus contralateral dorsal horns (GLT-1): no qualitative difference | GLAST protein compared with saline-treated injured rats (GLAST protein): significant decrease | GLT-1 protein compared with L5 spinal nerve transection alone (GLT-1 protein): significantly elevated
